Reference: publication PMC3521585 (Journal of medicinal chemistry, 2009)

Biological target: Substance P receptors (GPI) (Cavia porcellus, UniProt P30547)
Assay: Substance P antagonist assay in guinea pig ileum with naloxone
Type: cell-based
Conditions: against Substance P induced contraction, 1 μM naloxone, n = 4

Sequence of Substance P receptors (GPI) (P30547 whole entry): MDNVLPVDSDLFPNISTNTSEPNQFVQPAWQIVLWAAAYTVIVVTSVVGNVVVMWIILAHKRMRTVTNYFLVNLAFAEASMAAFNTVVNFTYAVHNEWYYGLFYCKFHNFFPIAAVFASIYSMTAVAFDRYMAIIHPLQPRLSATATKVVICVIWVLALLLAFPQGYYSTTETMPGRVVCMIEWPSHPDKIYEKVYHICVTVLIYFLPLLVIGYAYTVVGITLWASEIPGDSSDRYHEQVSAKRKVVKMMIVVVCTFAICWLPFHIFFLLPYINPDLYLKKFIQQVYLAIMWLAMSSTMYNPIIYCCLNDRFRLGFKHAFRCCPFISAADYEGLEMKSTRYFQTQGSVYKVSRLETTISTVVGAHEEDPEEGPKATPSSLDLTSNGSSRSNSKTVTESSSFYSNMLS

Question: With CC(=O)N[C@@H](Cc1c[nH]c2ccccc12)C(=O)OCc1cc(C(F)(F)F)cc(C(F)(F)F)c1 [L-732,138, Ac-Trp-O-3’,5’-Bzl(CF3)2] as the compound, how does the “Ke, GPI, Substance P antagonist” value read?
Answer: Its value is 250 ± 87 nM.
